According to US10597388B2, “Pyridazinone herbicides” (FMC CORPORATION, priority 2014, dated 2020):

Key:
Assay type in all cases: in vivo
[1] = system: barnyardgrass (Echinochloa crus-galli); test: Test B flooded paddy test; settings: 250 g ai/ha, Flood; visual rating on scale of 0 to 100 where 0 is no effect and 100 is complete control; 13 to 15 d after treatment
In short: (§1)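 Ratings use a 0-100 visual scale, where 100 is complete control, and compare treated plants with controls after 13 to 15 d of greenhouse growth. Compound went straight into paddy water kept 3 cm over the soil surface, applied to seedlings at the 2-leaf stage.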

[2] = system: sedge, umbrella (small-flower umbrella sedge, Cyperus difformis); test: Test B flooded paddy test; settings: 250 g ai/ha, Flood; visual rating on scale of 0 to 100 where 0 is no effect and 100 is complete control; 13 to 15 d after treatment
In short: as §1

[3] = system: ducksalad (Heteranthera limosa); test: Test B flooded paddy test; settings: 250 g ai/ha, Flood; visual rating on scale of 0 to 100 where 0 is no effect and 100 is complete control; 13 to 15 d after treatment
In short: as §1

[4] = system: rice (Oryza sativa); test: Test B flooded paddy test; settings: 250 g ai/ha, Flood; visual rating on scale of 0 to 100 where 0 is no effect and 100 is complete control; 13 to 15 d after treatment
In short: as §1

[5] = system: kochia (Kochia scoparia); test: Test C greenhouse herbicide test, postemergence
In short: (§2)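 Plants grown in potting mix of peat moss, vermiculite, wetting agent and starter nutrients were sprayed postemergence at 2 to 18 cm height (1- to 4-leaf stage). After 13 to 15 d in the greenhouse, injury was visually rated against untreated controls on a 0–100 scale (0 no effect, 100 complete control).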

[6] = system: chickweed (common chickweed, Stellaria media); test: Test C greenhouse herbicide test, postemergence
In short: as §2

[7] = system: oat, wild (wild oat, Avena fatua); test: Test C greenhouse herbicide test, postemergence
In short: as §2

[8] = system: corn (Zea mays); test: Test A greenhouse herbicide test, pre- and postemergence; settings: Postemergence; for Corn plant response rating: 0 to 100 scale, 0 is no effect, 100 is complete control
In short: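 Visual injury ratings, 0 (no effect) to 100 (complete control), versus untreated plants after roughly 10 d in a greenhouse. Compounds, formulated in a surfactant-containing non-phytotoxic solvent, were sprayed on loam–sand soil after sowing (pre) or on one- to two-leaf plants 2–10 cm tall (post).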

[9] = Postemergence, 125 g ai/ha, scale 0 to 100, 0 is no effect, 100 is complete control
[10] = Postemergence, 250 g ai/ha, scale 0 to 100, 0 no effect, 100 complete control, 13 to 15 d
[11] = postemergence, 62 g ai/ha, scale 0 to 100, 0 no effect, 100 complete control
[12] = Postemergence, 31 g ai/ha, 0 to 100 scale (0 no effect, 100 complete control)
[13] = 125 g ai/ha, 0 to 100 scale where 0 is no effect and 100 is complete control
[14] = 500 g ai/ha, visual rating after approx. 10 d, 0 to 100 scale (0 no effect, 100 complete control)
[15] = Postemergence, 31 g ai/ha, scale 0 to 100 (0 no effect, 100 complete control)
[16] = Postemergence, 62 g ai/ha, 0 to 100 scale (0 no effect, 100 complete control)
[17] = postemergence, 125 g ai/ha, scale 0 to 100, 0 no effect, 100 complete control

Structure (SMILES) | Plant response rating, Barnyardgrass [1] | Plant response rating, Sedge, Umbrella [2] | Plant response rating, Ducksalad [3] | Plant response rating, Rice [4] | Plant response rating, Kochia [5, 9] | Plant response rating, Kochia [5, 10] | Kochia plant response rating [5, 11] | Chickweed plant response rating [6, 12] | Plant response rating, Chickweed [6, 9] | Plant response rating, Chickweed [6, 10] | Chickweed plant response rating [6, 11] | Plant response rating, Oat, Wild [7, 9] | Plant response rating, Oat, Wild [7, 10] | Oat, Wild plant response rating [7, 11] | Plant response rating, Corn [8, 13] | Corn plant response rating ([8]; 500 g ai/ha) | Plant response rating, Corn [8, 14] | Plant response rating, Kochia [5, 15] | Plant response rating, Chickweed [6, 15] | Plant response rating, Oat, Wild [7, 15] | other results
CCOC(=O)Oc1c(C)nn(C)c(=O)c1-c1c(C)sc2ccc(C)cc12 [Compound 82] | 0 | 0 | 0 | 0 | 90 | 90 | 90 | 90 | 90 | 98 | 90 | 90 | 90 | 85 | 0 | 0 |  |  |  |  | 
CCOC(=O)Oc1c(C)nn(C)c(=O)c1-c1c(C)sc2c(C)cc(C)cc12 [Compound 83] | 60 | 90 | 70 | 30 | 65 | 80 | 60 | 90 | 95 | 100 | 95 | 90 | 95 | 90 | 0 | 0 |  |  |  |  | 
Cc1cc(C)c2sc(C)c(-c3c(OC(=O)OCCCl)c(C)nn(C)c3=O)c2c1 [Compound 85] | 50 | 80 | 50 | 50 | 60 | 70 | 70 | 90 | 95 | 100 | 95 | 95 | 90 | 90 | 0 | 0 |  |  |  |  | 
C#CCOC(=O)Oc1c(C)nn(C)c(=O)c1-c1c(C)sc2ccc(C)cc12 [Compound 87] | 0 | 0 | 0 | 0 | 90 | 95 | 90 | 90 | 95 | 98 | 90 | 85 | 90 | 90 | 0 | 0 |  |  |  |  | 
CC(=O)Oc1c(C#N)nn(C)c(=O)c1-c1c(C)ccc2ccccc12 [Compound 98] | 45 | 60 | 75 | 30 | 60 | 80 | 20 | 95 | 100 | 100 | 100 | 95 | 100 | 80 | 20 |  | 20 |  |  |  | 
COc1nn(C)c(=O)c(-c2c(C)sc3ccc(Cl)cc23)c1O [Compound 100] | 0 | 0 | 0 | 0 | 95 | 95 | 90 | 90 | 95 | 95 | 90 | 85 | 95 | 70 | 0 |  | 20 |  |  |  | 
CCC(=O)Oc1c(Cl)nn(C)c(=O)c1-c1c(C)sc2ccc(Cl)cc12 [Compound 111] | 0 | 75 | 75 | 0 | 90 | 95 |  |  | 100 | 98 | 98 | 90 | 98 |  | 0 |  | 20 | 80 | 95 | 55 | 
Cc1sc2ccc(Cl)cc2c1-c1c(OS(C)(=O)=O)c(Cl)nn(C)c1=O [Compound 114] | 0 | 70 | 50 | 0 | 90 | 95 |  |  | 98 | 98 | 95 | 65 | 85 |  | 0 |  | 30 | 30 | 90 | 40 | 
Cc1nn(C)c(=O)c(-c2cc(F)cc3ccccc23)c1OS(C)(=O)=O [Compound 115] | 0 | 0 | 0 | 0 | 90 | 90 |  |  | 90 | 90 | 75 | 80 | 90 |  | 0 |  | 20 | 70 | 80 | 55 | 
Cc1nn(C)c(=O)c(-c2ccc(F)c3ccccc23)c1OC(=O)CC(F)(F)F [Compound 123] | 20 | 70 | 30 | 15 | 95 | 98 |  |  | 90 | 98 | 90 | 90 | 95 |  | 0 |  | 20 | 95 | 90 | 70 | 
Cc1ccc2ccccc2c1-c1c(O)c(Cl)nn(C)c1=O [Compound 125] | 0 | 75 | 80 | 0 | 90 | 90 |  |  | 95 | 95 | 95 | 95 | 95 |  | 20 |  | 30 | 85 | 95 | 85 | 
Cc1nn(C)c(=O)c(-c2cccc3ccc(C#N)cc23)c1O [Compound 127] | 0 | 0 | 0 | 0 |  | 90 |  |  |  | 95 |  |  | 60 |  | 0 |  | 10 | 40 | 50 | 10 | Kochia plant response rating [5, 16]: 85; Kochia plant response rating [5, 17]: 95; Chickweed plant response rating [6, 16]: 90; Chickweed plant response rating [6, 17]: 90; Oat, Wild plant response rating [7, 16]: 20; Oat, Wild plant response rating [7, 17]: 55
